{
  "source": "patent US10512665B2",
  "about": "“Methods and compositions related to inhibition of viral entry” (University of Utah Research Foundation, priority 2007, dated 2019)",
  "key": {"HXB2 strain": {"test_system": "HXB2 strain", "test": "Single-cycle viral infectivity (viral entry) assay, HXB2 strain"}, "JRFL": {"test_system": "JRFL", "test": "Viral infectivity (pseudovirion entry) assay, primary strain JRFL", "type": "cell-based, HIV-1", "experimental": "While HXB2 is a commonly used lab-adapted HIV-1 isolate, it is often more vulnerable to inhibition than primary clinical HIV-1 isolates. […] Bianchi 2005).\nAll studies were done using the HXB2 strain unless otherwise specified. Viral infectivity was measured essentially as previously described (Hamburger 2005) with several modifications. 8 μg/mL DEAE-Dextran was used as a fusion enhancer in all assays. Media was changed 22-26 h following infection. […] Fits were weighted by the absolute s.e.m. from quadruplicate points with the minimum allowable error set to 1%."}, "[1]": {"details": "read-out: IC50 (nM) (HXB2), HXB2 pseudovirion entry, Table 4"}, "[2]": {"details": "read-out: IC50 (μM) (HXB2), HXB2 viral entry, Table 3"}, "[3]": {"details": "read-out: IC50, inhibition of viral entry, HXB2"}, "[4]": {"details": "JRFL pseudovirion entry, Table 4, read-out: IC50 (nM) (JRFL)"}, "[5]": {"details": "JRFL, read-out: IC50 against primary isolate JRFL"}},
  "note": "Read-outs that look alike come from different tables or passages of the source.",
  "data": [
    {"molecule": "KGACDYPEWQWLCAA [PIE7]", "values": [
      {"measurement": "more potent than D10-p5", "setting": "HXB2 strain; HXB2, compared with D10-p5", "result": "~15", "unit": "fold"},
      {"measurement": "inhibitory activity in combination with Fuzeon", "setting": "HXB2 strain; against viral entry, with Fuzeon", "result": "at least additive"},
      {"measurement": "IC50", "setting": "HXB2 strain; [1]", "result": 620, "unit": "nM"},
      {"measurement": "IC50", "setting": "HXB2 strain; [2]", "result": 620, "unit": "nM"},
      {"measurement": "IC50", "setting": "HXB2 strain; [3]", "result": 620, "unit": "nM"},
      {"measurement": "reduction in potency against JRFL", "setting": "JRFL; JRFL compared with HXB2", "result": "~40", "unit": "fold"},
      {"measurement": "IC50", "setting": "JRFL; [4]", "result": 24000, "unit": "nM"},
      {"measurement": "improvement of potency on addition of TAK779", "setting": "JRFL; JRFL, addition of 100 nM TAK779", "result": "more than 3 fold"},
      {"measurement": "IC50", "setting": "JRFL; [5]", "result": 24400, "unit": "nM"}
    ]},
    {"molecule": "KKGACDYPEWRWLCAA [2K-PIE2]", "values": [
      {"measurement": "less potent than PIE2", "setting": "HXB2 strain; HXB2, compared with PIE2", "result": "~2", "unit": "fold"},
      {"measurement": "IC50", "setting": "HXB2 strain; [2]", "result": 2570, "unit": "nM"}
    ]},
    {"molecule": "HACDYPEWQWLCELGK [PIE15]", "values": [
      {"measurement": "IC50", "setting": "HXB2 strain; [1]", "result": 66.7, "unit": "nM"},
      {"measurement": "IC50", "setting": "JRFL; [4]", "result": 1450, "unit": "nM"}
    ]},
    {"molecule": "KKGACELLGWEWAWLCAA [D10-p5, reference compound]", "values": [
      {"measurement": "inhibition of infection of cells", "setting": "HXB2 strain; infectivity assay", "result": "inhibit infection of cells"},
      {"measurement": "IC50", "setting": "HXB2 strain; [2]", "result": 9510, "unit": "nM"}
    ]},
    {"molecule": "HPCDYPEWQWLCELGK [PIE12]", "values": [
      {"measurement": "IC50", "setting": "JRFL; [4]", "result": 578, "unit": "nM"}
    ]},
    {"molecule": "HPCDYPEWQWLCRLGK [PIE14]", "values": [
      {"measurement": "IC50", "setting": "HXB2 strain; [1]", "result": 33.1, "unit": "nM"},
      {"measurement": "IC50", "setting": "JRFL; [4]", "result": 1050, "unit": "nM"}
    ]},
    {"molecule": "KGACDYKEWQWLCAA [PIE8]", "values": [
      {"measurement": "IC50", "setting": "HXB2 strain; [3]", "result": 1680, "unit": "nM"}
    ]},
    {"molecule": "PEG-(KGACDYPEWQWLCAA)2 [PEG-(PIE7)2]", "values": [
      {"measurement": "inhibitory potency compared in words", "setting": "HXB2 strain", "result": "comparable to Fuzeon"},
      {"measurement": "improvement in IC50 over the corresponding monomer", "setting": "HXB2 strain; HXB2, dimer vs monomer", "result": "~325", "unit": "fold"},
      {"measurement": "IC50", "setting": "HXB2 strain; [1]", "result": 1.9, "unit": "nM"},
      {"measurement": "IC50", "setting": "HXB2 strain; [2]", "result": 1.9, "unit": "nM"},
      {"measurement": "IC50", "setting": "HXB2 strain; read-out: IC50 of dimeric inhibitors, HXB2", "result": 1.9, "unit": "nM"},
      {"measurement": "IC50", "setting": "JRFL; [5]", "result": 2300, "unit": "nM"}
    ]},
    {"molecule": "enfuvirtide [Fuzeon, reference compound]", "values": [
      {"measurement": "IC50", "setting": "HXB2 strain; [1]", "result": 3.7, "unit": "nM"},
      {"measurement": "IC50", "setting": "HXB2 strain; [2]", "result": 3.7, "unit": "nM"},
      {"measurement": "IC50", "setting": "JRFL; [4]", "result": 5, "unit": "nM"}
    ]},
    {"molecule": "KGACDYPEWRWLCAA [PIE2]", "values": [
      {"measurement": "IC50", "setting": "HXB2 strain; [3]", "result": 1320, "unit": "nM"}
    ]},
    {"molecule": "KKGACESPEWRWLCAA [2K-PIE1]", "values": [
      {"measurement": "IC50", "setting": "HXB2 strain; [2]", "result": 2220, "unit": "nM"}
    ]},
    {"molecule": "GACDYPEWQWLCAAGK [PIE7-GK]", "values": [
      {"measurement": "inhibitory potency compared in words", "setting": "HXB2 strain", "result": "slightly enhanced potency"},
      {"measurement": "IC50", "setting": "HXB2 strain; [1]", "result": 389, "unit": "nM"},
      {"measurement": "IC50", "setting": "JRFL; [4]", "result": 15800, "unit": "nM"}
    ]},
    {"molecule": "KGACDYPEWQWLCAAGK [K-PIE7-GK]", "values": [
      {"measurement": "IC50", "setting": "JRFL; [4]", "result": 14800, "unit": "nM"}
    ]},
    {"molecule": "HPCDYPEWQWLCKLGK [PIE13]", "values": [
      {"measurement": "IC50", "setting": "HXB2 strain; [1]", "result": 41.3, "unit": "nM"},
      {"measurement": "IC50", "setting": "JRFL; [4]", "result": 1470, "unit": "nM"}
    ]},
    {"molecule": "Cc1ccc(-c2ccc3c(c2)C=C(C(=O)Nc2ccc(C[N+](C)(C)C4CCOCC4)cc2)CCC3)cc1", "note": "[TAK779, reference compound]", "values": [
      {"measurement": "IC90", "setting": "JRFL; CCR5 co-receptor inhibitor, JRFL entry assay", "result": 100, "unit": "nM"}
    ]},
    {"molecule": "GACDYPEWQWLCAAGKK [PIE7-GKK]", "values": [
      {"measurement": "IC50", "setting": "HXB2 strain; [1]", "result": 382, "unit": "nM"},
      {"measurement": "IC50", "setting": "JRFL; [4]", "result": 19100, "unit": "nM"}
    ]},
    {"molecule": "KGACDYPEWRWLCAAA [PIE2-AAA]", "values": [
      {"measurement": "inhibitory potency compared in words", "setting": "HXB2 strain", "result": "nearly indistinguishable from the potency of PIE2"},
      {"measurement": "IC50", "setting": "HXB2 strain; [2]", "result": 1440, "unit": "nM"}
    ]}
  ]
}
